Biological target: T1, serotonin transporter (SERT) (Rattus norvegicus, UniProt P31652)
T1 construct: 225 μl of rat cortex suspension; from tissue; host or cells: rat (Sprague Dawley) brain cortex homogenate
Experiment: Serotonin transporter assay ([3H]-citalopram binding assay)
Conditions: rat cortex

T1 sequence (P31652 whole entry): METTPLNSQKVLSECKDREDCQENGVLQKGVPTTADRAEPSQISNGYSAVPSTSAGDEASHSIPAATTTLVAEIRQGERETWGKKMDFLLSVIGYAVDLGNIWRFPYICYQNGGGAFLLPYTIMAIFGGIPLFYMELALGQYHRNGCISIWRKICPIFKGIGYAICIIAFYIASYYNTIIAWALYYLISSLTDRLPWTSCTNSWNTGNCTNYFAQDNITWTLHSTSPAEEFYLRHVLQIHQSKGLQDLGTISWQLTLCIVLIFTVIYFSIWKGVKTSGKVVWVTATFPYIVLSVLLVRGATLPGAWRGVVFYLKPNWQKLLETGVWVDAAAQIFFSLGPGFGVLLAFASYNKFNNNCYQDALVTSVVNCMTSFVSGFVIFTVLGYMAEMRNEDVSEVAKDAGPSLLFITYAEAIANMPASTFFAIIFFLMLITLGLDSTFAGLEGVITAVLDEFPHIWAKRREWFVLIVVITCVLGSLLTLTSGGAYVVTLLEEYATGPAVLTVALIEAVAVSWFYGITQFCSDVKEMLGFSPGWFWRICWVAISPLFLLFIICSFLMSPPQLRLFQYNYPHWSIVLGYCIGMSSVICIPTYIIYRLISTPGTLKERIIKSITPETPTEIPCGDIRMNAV

Row | Structure (SMILES) | Activity in the SERT assay (displacement of 3H-citalopram), in words
1 | C=CC(C)(O)CCC=C(C)C (centres unmarked) [Linalool, linalool] | effect was also detected
2 | C=CC(C)(CCC=C(C)C)OC(C)=O (centres unmarked) [Linalyl acetate, linalyl acetate] | did not show affinity
